Assay results from paper PMC11930985 (Nature Communications, 2025).

How the values were obtained:
AML/MDS patients = experiment: Response assessment (ELN AML / modified IWG MDS criteria): ORR, DCR; assay type: in vivo, human
Description: All patients underwent baseline disease assessments at screening (peripheral blood and bone marrow (BM)). Efficacy was assessed according to the blast percentage in a peripheral blood and BM aspirate sample, measurement of absolute neutrophil count, measurement of platelet count, and red cell transfusion requirement according to the European LeukemiaNet[37] response criteria for AML and the modified IWG response criteria for MDS[38]. Response criteria used are summarized in Supplementary Table 4.
Response assessments (peripheral blood and BM) were performed at Cycle 2 Day 1 (pre-dose), Cycle 4 Day 1 (pre-dose) and repeated every 3 cycles thereafter or when clinically indicated. Patients who completed 12 months of study treatment and had not experienced progressive disease (PD) underwent response assessment every 5 cycles until PD was confirmed. Efficacy endpoints were: Objective response rate (ORR), defined as the number of patients with CR, CRi, MLFS, MR or PR divided by the total number of patients in the cohort/group; Disease control rate (DCR), defined as the number of patients with CR, CRi, MLFS, MR, PR or unchanged disease for at least three cycles (considered to have stable disease (SD)) divided by the total number of patients in the cohort/group; Overall survival (OS), defined as (date of death or censoring) – (date of the first study treatment) +1. Censoring date was the last date the patient was known to be alive; Event free survival (EFS), defined as (earliest of date of death, date of progression or date of censoring) – (date of the first study treatment) +1, with event defined as death or progression. Patients who started a new anti-cancer treatment before documented progression were censored at the date of the last assessment prior to start of non-protocol treatment. […] Patients who were alive without documented progression on the last day of contact were censored at the date of the last assessment.

[1] = test system: bone marrow cells from patients with primary AML; set-up: method as in Ben-Batalla et al., 2013; details: ref Ben-Batalla et al., 2013; cited from earlier work

Nc1nc(Nc2ccc3c(c2)CC[C@@H](N2CCCC2)CC3)nn1-c1cc2c(nn1)-c1ccccc1CCC2 [Bemcentinib]
CR (AML/MDS patients; DE 200/100 mg, N=4): 0 n (%) | CRi (AML/MDS patients; DE 200/100 mg, N=4): 0 n (%) | MLFS (AML/MDS patients; DE 200/100 mg, N=4): 0 n (%) | MR (marrow response) (AML/MDS patients; DE 200/100 mg, N=4): 0 n (%) | NE (not evaluable) (AML/MDS patients; DE 200/100 mg, N=4): 1 (25%) n (%) | Non-Responder (AML/MDS patients; DE 200/100 mg, N=4): 4 (100%) n (%) | PD (progressive disease) (AML/MDS patients; DE 200/100 mg, N=4): 1 (25%) n (%) | PR (AML/MDS patients; DE 200/100 mg, N=4): 0 n (%) | Responder (AML/MDS patients; DE 200/100 mg, N=4): 0 (0%) n (%) | UC (unchanged) (AML/MDS patients; DE 200/100 mg, N=4): 1 (25%) n (%) | CR (AML/MDS patients; DE 400/100 mg, N=6): 0 n (%) | CRi (AML/MDS patients; DE 400/100 mg, N=6): 0 n (%) | MLFS (AML/MDS patients; DE 400/100 mg, N=6): 0 n (%) | MR (marrow response) (AML/MDS patients; DE 400/100 mg, N=6): 1 (17%) n (%) | NE (not evaluable) (AML/MDS patients; DE 400/100 mg, N=6): 0 n (%) | Non-Responder (AML/MDS patients; DE 400/100 mg, N=6): 5 (83%) n (%) | PD (progressive disease) (AML/MDS patients; DE 400/100 mg, N=6): 0 n (%) | PR (AML/MDS patients; DE 400/100 mg, N=6): 0 n (%) | Responder (AML/MDS patients; DE 400/100 mg, N=6): 1 (17%) n (%) | UC (unchanged) (AML/MDS patients; DE 400/100 mg, N=6): 3 (50%) n (%) | CR (AML/MDS patients; DE 400/200 mg, N=7): 1 (14%) n (%) | CRi (AML/MDS patients; DE 400/200 mg, N=7): 1 (14%) n (%) | MLFS (AML/MDS patients; DE 400/200 mg, N=7): 0 n (%) | MR (marrow response) (AML/MDS patients; DE 400/200 mg, N=7): 0 n (%) | NE (not evaluable) (AML/MDS patients; DE 400/200 mg, N=7): 1 (14%) n (%) | Non-Responder (AML/MDS patients; DE 400/200 mg, N=7): 5 (71%) n (%) | PD (progressive disease) (AML/MDS patients; DE 400/200 mg, N=7): 1 (14%) n (%) | PR (AML/MDS patients; DE 400/200 mg, N=7): 0 n (%) | Responder (AML/MDS patients; DE 400/200 mg, N=7): 2 (29%) n (%) | UC (unchanged) (AML/MDS patients; DE 400/200 mg, N=7): 3 (43%) n (%) | CR (AML/MDS patients; DE 600/200 mg, N=14): 0 n (%) | CRi (AML/MDS patients; DE 600/200 mg, N=14): 1 (7%) n (%) | MLFS (AML/MDS patients; DE 600/200 mg, N=14): 1 (7%) n (%) | MR (marrow response) (AML/MDS patients; DE 600/200 mg, N=14): 0 n (%) | NE (not evaluable) (AML/MDS patients; DE 600/200 mg, N=14): 4 (29%) n (%) | Non-Responder (AML/MDS patients; DE 600/200 mg, N=14): 12 (86%) n (%) | PD (progressive disease) (AML/MDS patients; DE 600/200 mg, N=14): 3 (21%) n (%) | PR (AML/MDS patients; DE 600/200 mg, N=14): 0 n (%) | Responder (AML/MDS patients; DE 600/200 mg, N=14): 2 (14%) n (%) | UC (unchanged) (AML/MDS patients; DE 600/200 mg, N=14): 4 (29%) n (%) | CR (AML/MDS patients; DE 900/300 mg, N=5): 0 n (%) | CRi (AML/MDS patients; DE 900/300 mg, N=5): 0 n (%) | MLFS (AML/MDS patients; DE 900/300 mg, N=5): 0 n (%) | MR (marrow response) (AML/MDS patients; DE 900/300 mg, N=5): 0 n (%) | NE (not evaluable) (AML/MDS patients; DE 900/300 mg, N=5): 2 (40%) n (%) | Non-Responder (AML/MDS patients; DE 900/300 mg, N=5): 5 (100%) n (%) | PD (progressive disease) (AML/MDS patients; DE 900/300 mg, N=5): 0 n (%) | PR (AML/MDS patients; DE 900/300 mg, N=5): 0 n (%) | Responder (AML/MDS patients; DE 900/300 mg, N=5): 0 (0%) n (%) | UC (unchanged) (AML/MDS patients; DE 900/300 mg, N=5): 2 (40%) n (%) | Median time to objective response (AML/MDS patients; DE cohort): 22 days | ORR (AML/MDS patients; DE cohort overall, 36 patients, monotherapy): 14% | ORR (AML/MDS patients; DE cohort, 400/200 mg dosing group): 29% | CR (AML/MDS patients; DE overall, N=36): 1 (3%) n (%) | CRi (AML/MDS patients; DE overall, N=36): 2 (6%) n (%) | MLFS (AML/MDS patients; DE overall, N=36): 1 (3%) n (%) | MR (marrow response) (AML/MDS patients; DE overall, N=36): 1 (3%) n (%) | NE (not evaluable) (AML/MDS patients; DE overall, N=36): 8 (22%) n (%) | Non-Responder (AML/MDS patients; DE overall, N=36): 31 (86%) n (%) | PD (progressive disease) (AML/MDS patients; DE overall, N=36): 5 (14%) n (%) | PR (AML/MDS patients; DE overall, N=36): 0 n (%) | Responder (AML/MDS patients; DE overall, N=36): 5 (14%) n (%) | UC (unchanged) (AML/MDS patients; DE overall, N=36): 13 (36%) n (%) | Patients whose bone marrow cells were sensitive to BGB324 [1]: 7 out of 11 | Sensitization of primary patient AML cells to Ara-C [1]: sensitizes
